# Test results: patent US20070276008A1, “Pharmaceutical formulation comprising glycine as a stabilizer” (Eisai Company Limited, priority 1997, published 2007)
# Read-outs that look alike come from different tables or passages of the source.
# Columns and labels:
# [1] = format: physicochemical
# Procedure: A, B, and C contain 7.5 mg/mL glycine, equal to 100 mM glycine. D and E have 11.25 mg/mL glycine, equal to 150 mM glycine. F is the control without glycine.
# [2] = pH studies: chemical (HPLC) and physical (color) stability in water for injection; conditions: for Chemical and physical stability: 24 hours
# [3] = Reduced glycine concentration experiments: color change in 0.9% saline pH 10; format: physicochemical
# Procedure: Absorption measurements were taken at the zero time point, and at 2, 4, 6, and 8 hours after dissolution. […] The glycine concentration-dependence of compound 1 discoloration was evaluated at […] after dissolution.
# [4] = Preliminary buffer evaluation (phosphate vs glycine-NaOH); format: physicochemical
# Procedure: It is desirable that the pH of solutions of compound 1 and other compounds of the invention in 5% dextrose or normal saline remain in a range near about pH 10 to provide for an acceptable use period in a clinical setting. Phosphate and glycine buffer systems were tested.
# Based on this propensity to precipitate, phosphate was disqualified as a buffer for the compounds of the invention.
# [5] = Discoloration on reconstitution in aqueous solutions for intravenous administration; format: physicochemical; conditions: e.g. 5% dextrose or 0.9% saline
# Text: It has been found by the present inventors that anti-ulcerative compounds such as compound 1 and the compounds described by general formula I below discolor when they are reconstituted, i.e., dissolved, in aqueous solutions, particularly in solutions suitable for intravenous administration, e.g., 5% dextrose or 0.9% saline. Such solutions quickly turn yellow to yellow-brown.
# [6] = Glycine concentration and temperature studies: chemical stability (residual potency and impurity levels); format: physicochemical
# Procedure: A, B, and C contain 7.5 mg/mL glycine, equal to 100 mM glycine. […] F is the control without glycine.
# [7] = Effect of storage conditions (light, temperature) on absorbance 400-650 nm; format: physicochemical; conditions: 2 mg/mL, 0.9% saline
# Procedure: The effect of exposure to light and temperature was evaluated as a function of time for 0.9% saline solutions containing 2 mg/mL compound 1, with or without 10 mM glycine-NaOH buffer, was evaluated by monitoring absorbance at 400, 450, 500, 600, and 650 nm.
smiles,measurement,setting,value
COCCCOc1ccnc(C[S+]([O-])c2nc3ccccc3[nH]2)c1C (centres unmarked) [compound 1],Color formation,[1]; 5° C. compared to room temperature,significantly retarded
same,Discoloration,"[1]; solutions devoid of glycine, regardless of temperature",discolored very quickly
same,Discoloration,[1]; solutions with greater glycine concentrations,discolored more slowly
same,Order of chemical and physical stability by pH,"[2]; 5° C. and room temperature, 8 mg/mL in WFI",pH 11.5>pH 11>pH 10.5>pH 10>pH 9.5
same,Time until solutions began to assume a yellow color,"[2]; pH 9.5, 8 mg/mL in WFI",≤ 30 min
same,Chemical and physical stability,"[2]; pH 10.5, cold temperatures (5° C.)",adequate
same,Chemical and physical stability,"[2]; pH 10.5, room temperature",marginally stable
same,Stability for manufacture and handling in preparation for freeze drying,"[2]; pH 11 or greater, cold temperatures",adequately stable
same,Rate of discoloration (absorption),"[3]; 4 mg/mL, 0.9% saline pH 10, 25° C. dark, 0-8 hours, glycine-free vs 50 mM glycine",much greater rate
same,Difference in absorbance spectrum between glycine concentrations,"[3]; 4 mg/mL, 0.9% saline pH 10, 5, 10, 25, 50 mM glycine-NaOH, 5 hours",little difference
same,Absorbance,"[3]; 5 mM glycine-NaOH solution, 5 hours post-dissolution",noticeably higher absorbance
same,Color formation,"[4]; 50 mM phosphate buffer, compared with unbuffered solutions",color formation was not inhibited
same,Discoloration,"[4]; 100 mM glycine/NaOH, pH above 10",substantially slower
same,Appearance on reconstitution,[4]; phosphate-containing plugs,hazy solutions
same,Appearance after freeze-drying,[4]; solutions in phosphate and glycine buffers,"white, well-formed plugs"
same,Color on reconstitution in aqueous solutions,[5],discolor
same,Difference in chemical stability between glycine formulations,"[6]; 0 mM, 100 mM and 150 mM glycine",No substantial difference
same,Increase in impurity levels,"[6]; 5° C., pH 10.5 to 11, 24 hours",without measurable increases
same,Impurities measured,"[6]; room temperature, pH 10.5, 24 hours",> 1%
same,Increase in impurities,"[6]; room temperature, pH 11 solution, 24 hours",< 0.5%
same,Effect of glycine-NaOH buffer on absorption,"[7]; 10 mM glycine-NaOH, all wavelengths, temperatures, lighting conditions",decreases absorption
same,Effect of exposure to light on color development,[7]; with or without 10 mM glycine-NaOH,no detrimental effect
same,Color development with increasing storage temperature,[7]; without glycine-NaOH buffer,increase in undesirable color development
